pIC50: −log10 of the molar value.
What was measured:
CDK9/CycT1 [1] = target: T1, CDK9/CycT1 (Homo sapiens, UniProt P50750); assay: CDK9/CycT1 kinase assay (TR-FRET, Method 1a); type: biochemical; conditions: for pIC50: Method 1a, 10 μM ATP; for Selectivity CDK9/CDK2: derived from Methods 1a. and 2.
T1 construct: Recombinant full-length His-tagged human CDK9 and CycT1; His; purchased Invitrogen PV4131; host or cells: insect cells
Description: 1a. CDK9/CyeT1 Kinase Assay:
CDK9/CycT1-inhibitory activity of compounds of the present invention was quantified employing the CDK9/CycT1 TR-FRET assay as described in the following paragraphs:
Recombinant full-length His-tagged human CDK9 and CycT1, expressed in insect cells and purified by Ni-NTA affinity chromatography, were purchased from Invitrogen (Cat. No PV4131). As substrate for the kinase reaction biotinylated peptide biotin-Ttds-YISPLKSPYKISEG (C-terminus in amid form) was used which can be purchased e.g. form the company JERINI Peptide Technologies (Berlin, Germany). For the assay 50 nl of a 100 fold concentrated solution of the test compound in DMSO was pipetted into a black low volume 384 well microtiter plate (Greiner Bio-One, Frickenhausen, Germany), 2 μl of a solution of CDK9/CycT1 in aqueous assay buffer [50 mM Tris/HCl pH 8.0, 10 mM MgCl2, 1.0 mM dithiothreitol, 0.1 mM sodium ortho-vanadate, 0.01% (v/v) Nonidet-P40 (Sigma)] were added and the mixture was incubated for 15 min at 22° C. to allow pre-binding of the test compounds to the enzyme before the start of the kinase reaction. Then the kinase reaction was started by the addition of 3 μl of a solution of adenosine-tri-phosphate (ATP, 16.7 μM=>final conc. in the 5 μl assay volume is 10 μM) and substrate (1.67 μM=>final conc. in the 5 μl assay volume is 1 μM) in assay buffer and the resulting mixture was incubated for a reaction time of 25 min at 22° C. The concentration of CDK9/CycT1 was adjusted depending of the activity of the enzyme lot and was chosen appropriate to have the assay in the linear range, typical concentrations were in the range of 1 μg/ml. The reaction was stopped by the addition of 5 μl of a solution of TR-FRET detection reagents (0.2 μM streptavidine-XL665 [Cisbio Bioassays, Codolet, France] and 1 nM anti-RB(pSer807/pSer811)-antibody from BD Pharmingen [#558389] and 1.2 nM LANCE EU-W1024 labeled anti-mouse IgG antibody [Perkin-Elmer, product no. AD0077]) in an aqueous EDTA-solution (100 mM EDTA, 0.2% (w/v) bovine serum albumin in 100 mM HEPES/NaOH pH 7.0).
(§1) The resulting mixture was incubated 1 h at 22° C. to allow the formation of complex between the phosphorylated biotinylated peptide and the detection reagents. Subsequently the amount of phosphorylated substrate was evaluated by measurement of the resonance energy transfer from the Eu-chelate to the streptavidine-XL. Therefore, the fluorescence emissions at 620 nm and 665 nm after excitation at 350 nm was measured in a HTRF reader, e.g. a Rubystar (BMG Labtechnologies, Offenburg, Germany) or a Viewlux (Perkin-Elmer). The ratio of the emissions at 665 nm and at […] was taken as the measure for the amount of phosphorylated substrate. The data were normalised (enzyme reaction without inhibitor=0% inhibition, all other assay components but no enzyme=100% inhibition).

CDK2/CycE = target: T2, CDK2/CycE (Homo sapiens, UniProt P24941); assay: CDK2/CycE kinase assay (TR-FRET, Method 2); type: biochemical; conditions: Method 2, 10 μM ATP
T2 construct: GST; purchased ProQinase GmbH (Freiburg, Germany); host or cells: insect cells (Sf9)
Description: 2. CDK2/CycE Kinase Assay:
CDK2/CycE -inhibitory activity of compounds of the present invention was quantified employing the CDK2/CycE TR-FRET assay as described in the following paragraphs:
Recombinant fusion proteins of GST and human CDK2 and of GST and human CycE, expressed in insect cells (Sf9) and purified by Glutathion-Sepharose affinity chromatography, were purchased from ProQinase GmbH (Freiburg, Germany). As substrate for the kinase reaction biotinylated peptide biotin-Ttds-YISPLKSPYKISEG (C-terminus in amid form) was used which can be purchased e.g. form the company JERINI Peptide Technologies (Berlin, Germany).
(§2) For the assay 50 nl of a 100 fold concentrated solution of the test compound in DMSO was pipetted into a black low volume 384 well microtiter plate (Greiner Bio-One, Frickenhausen, Germany), 2 μl of a solution of CDK2/CycE in aqueous assay buffer [50 mM Tris/HCl pH 8.0, 10 mM MgCl2, 1.0 mM dithiothreitol, 0.1 mM sodium ortho-vanadate, 0.01% (v/v) Nonidet-P40 (Sigma)] were added and the mixture was incubated for […] at 22° C. to allow pre-binding of the test compounds to the enzyme before the start of the kinase reaction. Then the kinase reaction was started by the addition of 3 μl of a solution of adenosine-tri-phosphate (ATP, 16.7 μM=>final conc. in the 5 μl assay volume is 10 μM) and substrate (1.25 μM=>final conc. in the 5 μl assay volume is 0.75 μM) in assay buffer and the resulting mixture was incubated for a reaction time of […] at 22° C. The concentration of CDK2/CycE was adjusted depending of the activity of the enzyme lot and was chosen appropriate to have the assay in the linear range, typical concentrations were in the range of 130 ng/ml. The reaction was stopped by the addition of 5 μl of a solution of TR-FRET detection reagents (0.2 μM streptavidine-XL665 [Cisbio Bioassays, Codolet, France] and 1 nM anti-RB(pSer807/pSer811)-antibody from BD Pharmingen [#558389] and 1.2 nM LANCE EU-W1024 labeled anti-mouse IgG antibody [Perkin-Elmer, product no. AD0077]) in an aqueous EDTA-solution (100 mM EDTA, 0.2% (w/v) bovine serum albumin in 100 mM HEPES/NaOH pH 7.0).
as §1, with “TR-FRET” for “HTRF”

HeLa cells = assay: Proliferation assay (crystal violet), HeLa; type: cell-based; conditions: Homo sapiens, 96 h, 4 days, read-out: Inhibition of HeLa cell proliferation IC50
Procedure: Cultivated tumour cells (HeLa, human cervical tumour cells, ATCC CCL-2; NCI-H460, human non-small cell lung carcinoma cells, ATCC HTB-177; A2780, human ovarian carcinoma cells, ECACC #93112519; DU 145, hormone-independent human prostate carcinoma cells, ATCC HTB-81; HeLa-MaTu-ADR, multidrug-resistant human cervical carcinoma cells, EPO-GmbH Berlin; Caco-2, human colorectal carcinoma cells, ATCC HTB-37; B 16F10, mouse melanoma cells, ATCC CRL-6475) were plated at a density of 5,000 cells/well (DU145, HeLa-MaTu-ADR), 3,000 cells/well (NCI-H460, HeLa), 2,500 cells/well (A2780), 1,500 cells/well (Caco-2), or 1,000 cells/well (B16F10) in a 96-well multititer plate in 200 μL of their respective growth medium supplemented 10% fetal calf serum. After 24 hours, the cells of one plate (zero-point plate) were stained with crystal violet (see below), while the medium of the other plates was replaced by fresh culture medium (200 to which the test substances were added in various concentrations (0 μM, as well as in the range of 0.001-10 μM; the final concentration of the solvent dimethyl sulfoxide was 0.5%). The cells were incubated for 4 days in the presence of test substances. Cell proliferation was determined by staining the cells with crystal violet: the cells were fixed by adding 20 μl/measuring point of an 11% glutaric aldehyde solution for 15 minutes at room temperature. After three washing cycles of the fixed cells with water, the plates were dried at room temperature. The cells were stained by adding 100 μl/measuring point of a 0.1% crystal violet solution (pH 3.0). After three washing cycles of the stained cells with water, the plates were dried at room temperature. The dye was dissolved by adding 100 μl/measuring point of a 10% acetic acid solution. The extinction was determined by photometry at a wavelength of 595 nm. The change of cell number, in percent, was calculated by normalization of the measured values to the extinction values of the zero-point plate (=0%) and the extinction of the untreated (0 μm) cells (=100%). The IC50 values (inhibitory concentration at 50% of maximal effect) were determined by means of a 4 parameter fit.

CDK9/CycT1 [2] = target: T1, CDK9/CycT1; assay: CDK9/CycT1 high ATP kinase assay (TR-FRET, Method 1b); type: biochemical; conditions: 2 mM ATP
Procedure: 1b. CDK9/CyeT1 High ATP Kinase Assay
CDK9/CycT1-inhibitory activity of compounds of the present invention at a high ATP concentration after preincubation of enzyme and test compounds was quantified employing the CDK9/CycT1 TR-FRET assay as described in the following paragraphs.
Recombinant full-length His-tagged human CDK9 and CycT1, expressed in insect cells and purified by Ni-NTA affinity chromatography, were purchase from Invitrogen (Cat. No PV4131). As substrate for the kinase reaction biotinylated peptide biotin-Ttds-YISPLKSPYKISEG (C-terminus in amid form) was used which can be purchased e.g. form the company JERINI peptide technologies (Berlin, Germany).
as §2, with “of CDK9/CycT1” for “of CDK2/CycE”, “(ATP, 3.3 mM=>final conc. in the 5 μl assay volume is 2 mM) and substrate (1.67” for “(ATP, 16.7”, “is 1” for “is 10 μM) and substrate (1.25 μM=>final conc. in the 5 μl assay volume is 0.75”, “of 0.5” for “of 130”, “([…]” for “(0.2 μM”
as §1

T1 sequence (P50750 whole entry): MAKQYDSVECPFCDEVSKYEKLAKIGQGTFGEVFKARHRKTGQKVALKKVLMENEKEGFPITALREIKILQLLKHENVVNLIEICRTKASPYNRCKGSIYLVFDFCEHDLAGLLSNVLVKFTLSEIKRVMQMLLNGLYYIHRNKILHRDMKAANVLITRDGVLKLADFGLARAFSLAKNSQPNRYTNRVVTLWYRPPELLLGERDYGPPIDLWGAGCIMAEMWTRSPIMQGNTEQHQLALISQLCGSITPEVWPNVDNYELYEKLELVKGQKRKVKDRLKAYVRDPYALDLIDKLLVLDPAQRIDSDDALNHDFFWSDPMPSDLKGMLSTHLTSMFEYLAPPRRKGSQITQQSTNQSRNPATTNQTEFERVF
T1 sequence (O60563 whole entry partner): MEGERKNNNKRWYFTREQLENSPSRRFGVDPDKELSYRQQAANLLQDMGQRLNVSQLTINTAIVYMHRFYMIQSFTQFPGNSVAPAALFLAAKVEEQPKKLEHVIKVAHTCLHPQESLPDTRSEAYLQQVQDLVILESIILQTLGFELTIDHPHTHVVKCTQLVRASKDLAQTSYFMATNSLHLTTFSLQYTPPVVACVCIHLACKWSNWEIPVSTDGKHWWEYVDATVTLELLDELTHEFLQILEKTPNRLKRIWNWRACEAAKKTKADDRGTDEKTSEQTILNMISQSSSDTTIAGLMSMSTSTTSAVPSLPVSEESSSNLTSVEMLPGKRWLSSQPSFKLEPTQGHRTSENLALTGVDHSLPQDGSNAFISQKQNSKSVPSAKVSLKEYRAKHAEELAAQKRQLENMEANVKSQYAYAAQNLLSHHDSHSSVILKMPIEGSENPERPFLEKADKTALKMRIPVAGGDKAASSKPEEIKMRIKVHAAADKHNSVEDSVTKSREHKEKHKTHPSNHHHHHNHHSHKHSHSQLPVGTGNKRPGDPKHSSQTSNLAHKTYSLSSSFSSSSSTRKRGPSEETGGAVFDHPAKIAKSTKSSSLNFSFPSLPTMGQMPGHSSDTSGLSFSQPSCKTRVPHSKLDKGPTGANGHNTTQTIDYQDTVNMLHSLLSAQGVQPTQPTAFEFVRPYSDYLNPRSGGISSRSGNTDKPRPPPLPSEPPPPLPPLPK

## CS(=O)(=O)Cc1cc(Nc2ncc(F)c(-c3ccc(F)cc3F)n2)cc(C(F)(F)F)c1 [Example 1, 4-(2,4-Difluorophenyl)-5-fluoro-N-{3-[(methylsulfonyl)methyl]-5-(trifluoromethyl)phenyl}pyrimidin-2-amine]
CDK9/CycT1 [1]
  pIC50: 7.70
  Selectivity CDK9/CDK2: >1000
CDK2/CycE
  pIC50: < 4.70
HeLa cells
  pIC50: 5.98

## CCS(=O)(=O)Cc1cccc(Nc2ncc(F)c(-c3ccc(F)cc3F)n2)c1 [Example 7, 4-(2,4-Difluorophenyl)-N-{3-[(ethylsulfonyl)methyl]phenyl}-5-fluoropyrimidin-2-amine]
CDK9/CycT1 [1]
  pIC50: 7.40
  Selectivity CDK9/CDK2: 8.9
CDK2/CycE
  pIC50: 6.44
HeLa cells
  pIC50: 5.65

## CCCS(=O)(=O)Cc1cc(F)cc(Nc2ncc(F)c(-c3cc(F)c(F)cc3F)n2)c1 [Example 14, 5-Fluoro-N-{3-fluoro-5-[(propylsulfonyl)methyl]phenyl}-4-(2,4,5-trifluorophenyl)pyrimidin-2-amine]
CDK2/CycE
  pIC50: < 4.70
CDK9/CycT1 [2]
  pIC50: < 4.70
HeLa cells
  pIC50: 5.52

Reference: patent publication US20150259300A1, “4-(ORTHO)-FLUOROPHENYL-5-FLUOROPYRIMIDIN-2-YL AMINES CONTAINING A SULFONE GROUP” (BAYER PHARMA AKTIENGESELLSCHAFT, priority 2012, published 2015)
